Like-named read-outs stand apart in the source and are kept apart here.
Columns and labels:
[1] = system: HaloTag (HT) protein fusion; experiment: Binding to purified HaloTag protein fusion, denaturing SDS-PAGE
[2] = system: HEK293 cells expressing dL5**-TM coplated with HT-TM-mCer3 cells
[3] = system: FRB-HT/dK-FKBP; experiment: Rapamycin chemical inducer of dimerization; type: biochemical; settings: 100 nM dK fusion, 200 nM HT fusion, 250 nM rapamycin, 10 nM DAPA
[4] = system: HEK293 cells expressing NLS-dL5**; experiment: Cell permeability testing: labeling of nuclear localized FAP; type: cell-based; settings: flow cytometry, 100 nM dye, normalized to MG-nBu
[5] = system: HEK293 cells expressing dK-TM coplated with HT-TM-mCer3 cells; settings: 10 nM DAPA dye
[6] = system: dK (dL5(E52K)); type: binding
[7] = system: HEK293 cells expressing HT-TM-mCer3 (HaloTag); type: cell-based; settings: 500 nM dye, washed 6×, then 1 μM dL5**
[8] = system: dK-FRB/FKBP-HT; experiment: Rapamycin chemical inducer of dimerization; type: biochemical; settings: 100 nM dK fusion, 200 nM HT fusion, 250 nM rapamycin, 10 nM DAPA
[9] = system: dL5**; experiment: Binding kinetics and affinity of dye to purified FAP; settings: SD, N = 4

Sequence of dK-FRB/FKBP-HT (P42345 2021-2113 limits assumed): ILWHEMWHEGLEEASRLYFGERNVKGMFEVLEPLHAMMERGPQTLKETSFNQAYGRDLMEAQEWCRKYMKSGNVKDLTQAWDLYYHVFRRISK
Sequence of dK-FRB/FKBP-HT (P62942 2-108 limits assumed, further chain): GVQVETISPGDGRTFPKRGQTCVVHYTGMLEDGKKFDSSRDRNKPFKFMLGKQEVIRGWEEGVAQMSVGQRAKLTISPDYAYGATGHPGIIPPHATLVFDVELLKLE
Sequence of FRB-HT/dK-FKBP (P42345 2012-2144 limits assumed): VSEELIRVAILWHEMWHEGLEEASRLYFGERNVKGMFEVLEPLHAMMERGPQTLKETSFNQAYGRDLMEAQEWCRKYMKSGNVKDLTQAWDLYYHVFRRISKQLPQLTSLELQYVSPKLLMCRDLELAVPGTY
Sequence of FRB-HT/dK-FKBP (P62942 2-108 limits assumed, further chain): as the sequence (P62942 2-108 limits assumed, further chain) above

MG-PEG3500-HexCl [DAPA]
binding to purified HaloTag protein fusion [1]: irreversibly bind
ratio between contact and noncontact signal ([2]; 100 nM DAPA dye): 1.9
ratio between contact and noncontact signal ([2]; DAPA dye between 0.5 nM and 10 nM): > 3.8
increase in FAP–DAPA signal for rapamycin induced dimerization [3]: 50%
NLS-dL5** labeling signal relative to MG-nBu signal [4]: 5%
signal increase at the contact site versus the noncontact site [5]: 40 fold
off rate, koff, dK ([6]; SD, N = 4): 53 ± 2 ×10^−4 s^−1
on rate, kon, dK ([6]; SD, N = 4): 0.39 ± 0.03 ×10^6 M^−1 s^−1
difference in FAP/DAPA KD between dL5** and dK ([6]; dK versus dL5**): ~ 500 fold
Kd ([6]; read-out: dissociation constant, KD, dK, KD = koff/kon, SD, N = 4): 0.0137 ± 0.0005 µM
labeling of HaloTag expressing cells [7]: specifically labeled mCer3 positive cells
increase in FAP–DAPA signal for rapamycin induced dimerization [8]: 100%
off rate, koff, dL5** [9]: 1.23 ± 0.06 ×10^−4 s^−1
on rate, kon, dL5** [9]: 3.2 ± 0.2 ×10^6 M^−1 s^−1
